This is an account of results in patent US20140057953A1, “BIARYL DERIVATIVES AS SELECTIVE 17BETA-HYDROXYSTEROID DEHYDROGENASE TYPE 2 INHIBITORS” (priority 2011, published 2014).

One assay deals with T1, 17β-HSD2 (Homo sapiens, UniProt P37059).
T1 sequence (P37059 1-387): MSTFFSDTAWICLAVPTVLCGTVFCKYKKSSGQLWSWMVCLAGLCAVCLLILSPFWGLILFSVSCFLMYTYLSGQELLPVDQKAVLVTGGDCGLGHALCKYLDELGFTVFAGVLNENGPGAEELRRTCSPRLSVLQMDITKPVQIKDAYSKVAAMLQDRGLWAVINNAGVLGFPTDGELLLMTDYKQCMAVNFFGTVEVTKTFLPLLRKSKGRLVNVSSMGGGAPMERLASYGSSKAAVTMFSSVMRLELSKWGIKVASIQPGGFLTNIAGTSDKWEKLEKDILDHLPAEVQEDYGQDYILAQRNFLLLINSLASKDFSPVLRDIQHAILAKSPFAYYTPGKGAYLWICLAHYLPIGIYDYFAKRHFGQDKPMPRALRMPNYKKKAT
Briefly: Inhibition of 17β-HSD2 in cell-free assay. Type of assay: biochemical. Further details: 17β-HSD2 was obtained directly from the microsomal fraction; from tissue; host or cells: human placenta, microsomal fraction. To be noted: human placenta, microsomal fraction, substrate E2 500 nM, cofactor NAD+ 1500 μM; for inhibition at 1 µM / % inhibition 17β-HSD2: inhibitor concentration 1 μM. The method, then:
(§1) Fresh human placenta was homogenized. Cytosolic and microsomal fractions were separated by centrifugation at 1000 g, 10000 g and 150000 g. 17β-HSD2 was obtained directly from the microsomal fraction. For the partial purification of 17β-HSD1, the cytosolic fraction was precipitated with ammonium sulfate. Aliquots containing 17β-HSD1 or 17β-HSD2 were stored frozen.
Inhibitor stock solutions were prepared in DMSO. Final concentration of DMSO was adjusted to 1% in all samples. The enzymatic reaction was started by addition of a mixture of unlabelled- and [^3H]-E2 (final concentration: 500 nM, 0.11 μCi). After 20 min at 37° C., the incubation was stopped with HgCl2 and the mixture was extracted with ether. After evaporation, the steroids were dissolved in acetonitrile. E1 and E2 were separated using acetonitrile/water (45:55) as mobile phase in a C18 RP chromatography column (Nucleodur C18, 3 μm, Macherey-Nagel, Duren) connected to a HPLC-system (Agilent 1100 Series, Agilent Technologies, Waldbronn). Detection and quantification of the steroids were performed using a radioflow detector (Berthold Technologies, Bad Wildbad). The conversion rate was calculated according to the following equation: […]

In another assay the target is ERβ (Homo sapiens, UniProt Q92731). Briefly: ER affinity assay (ERβ), [3H]-E2 displacement. The settings on record: Relative Binding Affinity, E2 = 100%; recombinant human protein. How it is done: (§2) The binding affinity of selected compounds to the ERα and ERβ was determined according to Zimmermann et al. (Zimmermann, J. et al., 3. Steroid Biochem. Mol. Biol., 94:57-66 (2005)) using recombinant human proteins. Briefly, 0.25 μM of ERα or ERβ, respectively, were incubated with [^3H]-E2 (10 nM) and test compound for 1 h at room temperature. The potential inhibitors were dissolved in DMSO (5% final concentration). Evaluation of non-specific-binding was performed with diethylstilbestrol (10 μM). After incubation, ligand-receptor complexes were selectively bound to hydroxyapatite (5 g/60 ml TE-buffer). The formed complex was separated, washed and resuspended in ethanol. For radiodetection, scintillator cocktail (Quickszint 212, Zinsser Analytic, Frankfurt) was added and the samples were measured in a liquid scintillation counter (Rack Beta Primo 1209, Wallac, Turku). […] The compound concentration to displace 50% of the receptor bound [^3H]-E2 were determined. Unlabelled E2 was used as a reference. For determination of the relative binding affinity (RBA) the ratio was calculated according to the following equation: […]
Sequence of ERβ (Q92731 whole entry): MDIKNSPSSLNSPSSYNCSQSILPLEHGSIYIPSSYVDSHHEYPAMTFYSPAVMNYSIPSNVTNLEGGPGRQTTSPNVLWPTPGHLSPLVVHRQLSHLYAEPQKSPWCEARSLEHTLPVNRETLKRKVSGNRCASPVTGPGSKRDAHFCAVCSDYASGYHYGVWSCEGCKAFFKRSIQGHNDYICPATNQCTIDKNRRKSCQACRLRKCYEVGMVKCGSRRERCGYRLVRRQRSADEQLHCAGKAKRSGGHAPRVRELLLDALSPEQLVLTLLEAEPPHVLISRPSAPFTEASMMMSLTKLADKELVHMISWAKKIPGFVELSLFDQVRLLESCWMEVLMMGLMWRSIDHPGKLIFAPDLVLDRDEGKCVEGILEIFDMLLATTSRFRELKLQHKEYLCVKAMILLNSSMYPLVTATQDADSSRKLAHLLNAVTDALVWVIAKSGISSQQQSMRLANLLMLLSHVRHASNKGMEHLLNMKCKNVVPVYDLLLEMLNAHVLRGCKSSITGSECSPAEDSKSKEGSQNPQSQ
(§3) After the assay was established and validated a modification was made to increase throughput. […] Results were reported as RBA ranges.

A further assay addresses T2, 17β-HSD1 (Homo sapiens, UniProt P14061).
T2 construct: For the partial purification of 17β-HSD1, the cytosolic fraction was precipitated with ammonium sulfate; from tissue; host or cells: human placenta, cytosolic fraction
T2 sequence (P14061 1-328): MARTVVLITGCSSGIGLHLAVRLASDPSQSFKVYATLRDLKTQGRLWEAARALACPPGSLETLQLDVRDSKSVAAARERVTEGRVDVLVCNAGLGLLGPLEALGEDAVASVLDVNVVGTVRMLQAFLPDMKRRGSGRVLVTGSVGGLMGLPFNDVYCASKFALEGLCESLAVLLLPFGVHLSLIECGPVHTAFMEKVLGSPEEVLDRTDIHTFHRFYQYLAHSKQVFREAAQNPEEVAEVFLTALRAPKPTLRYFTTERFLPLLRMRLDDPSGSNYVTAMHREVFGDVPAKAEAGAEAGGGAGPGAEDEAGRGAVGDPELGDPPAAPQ
Put plainly: Inhibition of 17β-HSD1 in cell-free assay. The format is biochemical. To be noted: human placenta, cytosolic fraction, substrate E1 500 nM, cofactor NADH 500 μM; for inhibition at 1 µM / % inhibition 17β-HSD1: inhibitor concentration 1 μM. The method, then:
as §1
The 17β-HSD1 inhibition assay was performed similarly to the 17β-HSD2 test. The cytosolic fraction was incubated with NADH [500 μM], test compound and a mixture of unlabelled- and [^3H]-E1 (final concentration: 500 nM, 0.15 μCi) for 10 min at 37° C. Further treatment of the samples and HPLC separation was carried out as mentioned above for 17β-HSD2.

In the next assay the target is T3, ERα (Homo sapiens, UniProt P03372).
T3 sequence (P03372 1-595): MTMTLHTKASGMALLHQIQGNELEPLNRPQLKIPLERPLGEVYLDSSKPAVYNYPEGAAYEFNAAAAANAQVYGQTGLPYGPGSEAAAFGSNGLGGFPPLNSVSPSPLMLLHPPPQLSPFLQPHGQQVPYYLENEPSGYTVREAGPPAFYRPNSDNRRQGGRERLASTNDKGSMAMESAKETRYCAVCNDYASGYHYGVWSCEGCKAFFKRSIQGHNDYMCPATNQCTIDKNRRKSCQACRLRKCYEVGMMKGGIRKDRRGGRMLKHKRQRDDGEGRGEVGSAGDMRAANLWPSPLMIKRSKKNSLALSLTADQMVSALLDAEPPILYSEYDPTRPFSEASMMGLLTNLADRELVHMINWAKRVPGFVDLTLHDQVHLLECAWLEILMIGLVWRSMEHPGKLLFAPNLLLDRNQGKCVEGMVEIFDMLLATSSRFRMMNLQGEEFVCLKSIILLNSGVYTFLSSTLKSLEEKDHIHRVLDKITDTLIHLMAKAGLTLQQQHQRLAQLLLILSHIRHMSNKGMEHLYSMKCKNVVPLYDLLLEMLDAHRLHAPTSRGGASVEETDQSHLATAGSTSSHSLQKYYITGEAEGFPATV
Put plainly: ER affinity assay (ERα), [3H]-E2 displacement. To be noted: Relative Binding Affinity, E2 = 100%; recombinant human protein. The method, then:
as §2, §3

Some results are limits rather than exact numbers.

Take `COc1cccc(N(C)C(=O)c2ccc(-c3cccc(N(C)C)c3)s2)c1` [compound 58, 5-(3-(Dimethylamino)phenyl)-N-(3-methoxyphenyl)-N-methylthiophene-2-carboxamide]: the IC50 at 17β-HSD2 is 169 nM; on 17β-HSD1, 10600 nM. Also, on ERβ, the “ERβ RBA (%)” value is given as <0.1%. For the same compound, on ERα, the “ERα RBA (%)” value is reported as <0.1%.
On to `CN(Cc1cccc(O)c1)C(=O)c1ccc(-c2cccc(O)c2)s1` [compound 24, N-(3-Hydroxybenzyl)-5-(3-hydroxyphenyl)-N-methylthiophene-2-carboxamide], for which the IC50 is 394 nM against 17β-HSD2 and > 5450 nM against 17β-HSD1. In addition, at ERβ, the “ERβ RBA (%)” value was <0.1%. Further, the “ERα RBA (%)” value at ERα is reported as <0.1%.
For `CN(CCc1cccc(O)c1)C(=O)c1ccc(-c2cccc(O)c2)s1` [compound 18, N-(3-Hydroxyphenethyl)-5-(3-hydroxyphenyl)-N-methylthiophene-2-carboxamide], the results for the inhibition at 1 µM against 17β-HSD2 and on 17β-HSD1 were 37% and 23%, respectively.
Take `COc1cccc(N(C)C(=O)c2ccc(-c3ccc(F)c(OC)c3)s2)c1` [compound 62, 5-(4-Fluoro-3-methoxyphenyl)-N-(3-methoxyphenyl)-N-methylthiophene-2-carboxamide]: the IC50 at 17β-HSD2 was 726 nM; against 17β-HSD1, > 100000 nM.
Take `COc1cccc(N(C)C(=O)c2ccc(-c3ccc(OC)c(F)c3)s2)c1` [compound 61, 5-(3-Fluoro-4-methoxyphenyl)-N-(3-methoxyphenyl)-N-methylthiophene-2-carboxamide]: the IC50 against 17β-HSD2 is 242 nM; at 17β-HSD1, > 40000 nM. The “ERβ RBA (%)” value on ERβ is recorded as <0.1%. Moreover, the “ERα RBA (%)” value at ERα is <0.1%.
On to `CN(Cc1cccc(O)c1)C(=O)c1ccc(-c2cccc(N(C)C)c2)s1` [compound 40, 5-(3-(Dimethylamino)phenyl)-N-(3-hydroxybenzyl)-N-methylthiophene-2-carboxamide], for which the IC50 is 246 nM on 17β-HSD2 and 18600 nM against 17β-HSD1. For the same compound, the “ERβ RBA (%)” value on ERβ is on record as <0.1%. Further, at ERα, the “ERα RBA (%)” value was <0.1%.
Regarding `COc1cccc(-c2ccc(C(=O)N(C)c3cccc(C(F)(F)F)c3)s2)c1` [compound 75, 5-(3-Methoxyphenyl)-N-methyl-N-(3-(trifluoromethyl)phenyl)thiophene-2-carboxamide], the IC50 came out at 721 nM against 17β-HSD2 and 12300 nM against 17β-HSD1. At ERβ, the “ERβ RBA (%)” value is <0.1%. The “ERα RBA (%)” value at ERα is <0.1%.
With `CN(Cc1cccc(O)c1)C(=O)c1ccc(-c2cccc(F)c2)s1` [compound 41, 5-(3-Fluorophenyl)-N-(3-hydroxybenzyl)-N-methylthiophene-2-carboxamide], the values for the half-inhibitory concentration (IC50) against 17β-HSD2 and against 17β-HSD1 were 326 nM and 3150 nM, respectively.
`COc1ccc(N(C)C(=O)c2ccc(-c3cccc(OC)c3F)s2)cc1` [compound 73, 5-(2-Fluoro-3-methoxyphenyl)-N-(4-methoxyphenyl)-N-methylthiophene-2-carboxamide]: the results for the inhibition at 1 µM against 17β-HSD2 and at 17β-HSD1 were 49% and 18%, respectively.
As for `COc1cccc(CN(C)C(=O)c2ccc(-c3ccccc3OC)s2)c1` [compound 27, N-(3-Methoxybenzyl)-5-(2-methoxyphenyl)-N-methylthiophene-2-carboxamide], on 17β-HSD2, at 1 µM the inhibition was 48%. Besides, on 17β-HSD1, the “% inhibition 17β-HSD1” value is given as “n.i.^e”.
The like results for `COc1ccc(-c2cccc(C(=O)N(C)Cc3cccc(OC)c3)c2)cc1` [compound 5, 4′-Methoxy-N-(3-methoxybenzyl)-N-methylbiphenyl-3-carboxamide] were, in that order, 11% and “n.i.^e”.
Consider `CN(Cc1cccc(O)c1)C(=O)c1cccc(-c2cccc(O)c2)c1` [compound 8, 3′-Hydroxy-N-(3-hydroxybenzyl)-N-methylbiphenyl-3-carboxamide], for which the IC50 is 481 nM at 17β-HSD2 and 3800 nM at 17β-HSD1.
For the compound `CN(CCc1cccc(O)c1)C(=O)c1ccc(-c2cccc(F)c2)s1` [compound 22, 5-(3-Fluorophenyl)-N-(3-hydroxyphenethyl)-N-methylthiophene-2-carboxamide], the inhibition at 1 µM at 17β-HSD2 amounted to 17%; at 17β-HSD1, 12%.
On 17β-HSD2, `CN(CCc1cccc(O)c1)C(=O)c1ccc(-c2ccccc2)s1` [compound 20, N-(3-Hydroxyphenethyl)-N-methyl-5-phenylthiophene-2-carboxamide] came in with an inhibition at 1 µM of 11%. In addition, at 17β-HSD1, the “% inhibition 17β-HSD1” value was “n.i.^e”.
As to `COc1cccc(CCN(C)C(=O)c2ccc(-c3cccc(F)c3)s2)c1` [compound 21, 5-(3-Fluorophenyl)-N-(3-methoxyphenethyl)-N-methylthiophene-2-carboxamide], at 17β-HSD2, the “% inhibition 17β-HSD2” value is recorded as “n.i.^e”. Also, the “% inhibition 17β-HSD1” value at 17β-HSD1 is listed as “n.i.^e”.
Consider `COc1cccc(-c2ccc(C(=O)N(C)c3cccc(-c4ccccc4)c3)s2)c1` [compound 76, N-(Biphenyl-3-yl)-5-(3-methoxyphenyl)-N-methylthiophene-2-carboxamide], for which the IC50 came out at 137 nM against 17β-HSD2 and 1110 nM against 17β-HSD1.
For the compound `COc1cccc(CN(C)C(=O)c2ccc(-c3ccc(C#N)cc3)s2)c1` [compound 31, 5-(4-Cyanophenyl)-N-(3-methoxybenzyl)-N-methylthiophene-2-carboxamide], the “% inhibition 17β-HSD2” value at 17β-HSD2 is recorded as “n.i.^e”. For the same compound, the “% inhibition 17β-HSD1” value at 17β-HSD1 was “n.i.^e”.
In the case of `COc1cccc(N(C)C(=O)c2ccc(-c3ccc(OC)cc3OC)s2)c1` [compound 57, 5-(2,4-Dimethoxyphenyl)-N-(3-methoxyphenyl)-N-methylthiophene-2-carboxamide], the IC50 was determined as 313 nM at 17β-HSD2 and 1930 nM at 17β-HSD1.
